System: Plasmodium berghei
Test: Luciferase/luciferin-expressing antifolate-resistant parasites were used to infect a culture of HepG2 cells that were pre-incubated with compounds. Infected hepatocytes emit light due to the luciferase reaction. Assay results are presented as the percent inhibition of light emission compared to control. […]
Assay type: functional
Details: sporozoite; for IC50: read-out: LUCIFERASE INFECTION ASSAY - IC50; for IC90: read-out: LUCIFERASE INFECTION ASSAY - IC90

SMILES | IC50 [µM] | IC90 [µM]
COc1ccc(/C=C(/C(=O)c2cccs2)N2C=CC=CC2=C(C#N)C#N)cc1 | > 10 | > 10
N=C(N)N/N=C/c1ccc(N(c2ccccc2)c2ccccc2)cc1 | 8.03 | 9.95
C/C(=N\N1CCCCC1)c1ccccc1O | > 10 | > 10
Cc1ccc2c(c1)s/c(=N/C(=O)c1cccs1)n2C | 2.27 | > 10
NS(=O)(=O)c1ccc(N/N=C/c2cn(-c3ccccc3)nc2-c2cccs2)c([N+](=O)[O-])c1 | > 10 | > 10
COC(=O)c1ccc(COc2ccc(/C=N/Nc3ccnc4cc(Cl)ccc34)cc2OC)cc1 | > 10 | > 10
O=C(N/N=C/c1c(Cl)nc2ccccn2c1=O)c1ccc(F)cc1 | > 10 | > 10
O=C(/C=C/c1cn(-c2ccccc2)nc1-c1cccnc1)Nc1nc(-c2ccccn2)cs1 | 5.33 | 8.39
O=C(NC(=S)NN(Cc1ccccc1)c1ccccc1)C12CC3CC(CC(C3)C1)C2 | > 10 | > 10
COc1ccc(NS(=O)(=O)c2cc([N+](=O)[O-])ccc2NNC(=S)NC2CCCCC2)cc1 | > 10 | > 10
C(=N\Nc1ncnc2sc3c(c12)CCCC3)/c1c(-c2ccccc2)n(-c2ccccc2)c2ccccc12 | > 10 | > 10
COC(=O)C1=C(C)NC(C)=C(C(=O)OC)C1c1cc(NC(=O)NC2CCCCC2)ccc1OC(F)F | > 10 | > 10
N#CC(c1nc(-c2ccc(Cl)cc2)cs1)N1CCc2ccccc2C1 (stereo not given) | > 10 | > 10
Cc1cccc(NS(=O)(=O)c2cc(C(=O)OCC(=O)Nc3ccc(F)c(F)c3F)ccc2C)c1 | > 10 | > 10
CN(C)S(=O)(=O)c1cccc(NC(=O)c2ccc3c(c2Cl)C(=O)c2ccccc2C3=O)c1 | 8.82 | > 10
O=C1NC(c2ccccc2)=C(C(=O)C(F)(F)F)C(c2ccc(OC(F)F)cc2)N1 (stereo not given) | > 10 | > 10
Cc1nn(-c2ccc(Cl)cc2)c2sc(C(=O)NC(C)(C)CC(C)(C)C)cc12 | > 10 | > 10
Cc1nn(-c2ccccc2)c(Cl)c1C(=O)N1CCN(C(c2ccccc2)c2ccccc2)CC1 | > 10 | > 10
N#C/C(=C\c1ccc(OC(=O)c2cccnc2)cc1)c1nnc2n1CCCCC2 | > 10 | > 10
Cc1c(Sc2ccc(F)cc2)c2ccccn2c1/C(=N\S(=O)(=O)c1cccs1)c1ccccc1 | > 10 | > 10
CCOC(=O)c1c(-c2ccc(Cl)cc2)csc1Nc1nc(S(=O)(=O)c2ccc(Cl)cc2)c(Cl)s1 | 5.47 | > 10
COc1ccc(NS(=O)(=O)c2cc(NC(=O)c3cc(S(=O)(=O)Nc4ccc(Cl)cc4)ccc3Cl)ccc2N2CCOCC2)cc1 | > 10 | > 10
O=C(/C=C/c1cc([N+](=O)[O-])ccc1OC(F)F)N1CCN(C(c2ccccc2)c2ccccc2)CC1 | > 10 | > 10
NC(=O)c1c(NC(=O)/C=C/c2cn(-c3ccccc3)nc2-c2cccnc2)sc2c1CCCC2 | > 10 | > 10
CN(C)S(=O)(=O)c1cccc(C(=O)N(Cc2ccccc2)CC(O)COC(c2ccccc2)c2ccccc2)c1 (stereo not given) | > 10 | > 10
COc1cc(-c2cc(C(=O)N/N=C3/C(=O)N(CC(C)C)c4ccccc43)c3ccccc3n2)cc(OC)c1OC | > 10 | > 10
Cc1cc(=O)nc(N/N=C2/CCc3ccccc3C2)[nH]1 | 5.6 | > 10
O=S(=O)(c1ccccc1)N1CN(c2ccc(N3CCOCC3)cc2)c2nc3ccccc3nc21 | > 10 | > 10
CCn1c2ccccc2c2cc(/C=C(/C(=O)c3ccccc3)c3nc4ccccc4[nH]3)ccc21 | 9.13 | > 10
CN(c1ccccc1)S(=O)(=O)c1cc(C(=O)c2nnc(-c3ccc(Cl)cc3)o2)ccc1Cl | > 10 | > 10

Source: ChEMBL document CHEMBL4483862, “Open-source discovery of chemical leads for next-generation chemoprotective antimalarials” (2018)
